Measured values: BindingDB's records for patent US9334290 (Bristol Myers Squibb, 2016)

Molecular target: Tyrosine-protein kinase JAK2 (Homo sapiens, UniProt O60674)
Test: Jak2 Tyrosine Kinase Assay
Details: pH 7.4; 25 °C

Chain of Tyrosine-protein kinase JAK2 (O60674 whole entry): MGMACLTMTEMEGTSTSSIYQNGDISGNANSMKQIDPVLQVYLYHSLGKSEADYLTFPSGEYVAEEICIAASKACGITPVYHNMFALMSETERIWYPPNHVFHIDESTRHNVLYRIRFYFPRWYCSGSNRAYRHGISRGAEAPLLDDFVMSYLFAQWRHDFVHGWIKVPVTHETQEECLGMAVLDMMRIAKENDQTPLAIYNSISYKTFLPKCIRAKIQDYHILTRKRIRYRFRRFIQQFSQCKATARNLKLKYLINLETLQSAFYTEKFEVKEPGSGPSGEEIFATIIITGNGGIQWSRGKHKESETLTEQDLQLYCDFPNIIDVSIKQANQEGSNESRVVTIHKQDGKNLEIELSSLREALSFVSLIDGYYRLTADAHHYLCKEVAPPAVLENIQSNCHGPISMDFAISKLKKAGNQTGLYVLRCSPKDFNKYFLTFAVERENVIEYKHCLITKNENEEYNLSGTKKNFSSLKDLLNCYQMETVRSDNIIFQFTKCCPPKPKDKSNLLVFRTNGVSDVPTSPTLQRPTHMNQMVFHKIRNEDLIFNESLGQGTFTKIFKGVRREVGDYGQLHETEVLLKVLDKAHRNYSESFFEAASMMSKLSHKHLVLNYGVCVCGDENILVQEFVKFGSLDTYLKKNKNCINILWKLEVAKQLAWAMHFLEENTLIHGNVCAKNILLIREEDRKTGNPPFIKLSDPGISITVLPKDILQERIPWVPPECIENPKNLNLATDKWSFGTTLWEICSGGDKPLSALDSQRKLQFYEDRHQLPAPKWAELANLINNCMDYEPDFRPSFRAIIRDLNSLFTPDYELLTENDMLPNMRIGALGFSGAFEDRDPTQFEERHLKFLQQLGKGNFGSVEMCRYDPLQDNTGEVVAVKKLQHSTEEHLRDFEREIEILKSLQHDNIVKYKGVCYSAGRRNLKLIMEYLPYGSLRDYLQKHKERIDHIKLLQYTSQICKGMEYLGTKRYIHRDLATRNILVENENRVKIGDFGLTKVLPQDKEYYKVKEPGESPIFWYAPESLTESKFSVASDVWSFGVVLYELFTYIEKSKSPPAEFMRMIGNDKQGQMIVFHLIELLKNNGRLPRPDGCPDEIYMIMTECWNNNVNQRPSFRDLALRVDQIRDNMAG

IC50: 760 nM
Structure (SMILES): Cc1c(-c2c(F)cc(C(N)=O)c3[nH]c4cc(C(C)(C)O)ccc4c23)cccc1-n1c(=O)[nH]c2c(F)cccc2c1=O [US9334290, 21]
